Calls of active or inactive are those of the source.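 Rule for the calls: active = caspase luminescence falls with dose and the half-maximal concentration AC50 from the fitted curve is at or below a set limit; inconclusive = flat fit at 30 to 70% signal loss, or invalid fit; inactive = AC50 above the limit, or signal rises instead.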
system: INS-1E cytokine-induced caspase-3/7, Caspase-Glo luminescence, 48 h; assay: suppression of cytokine-driven beta-cell apoptosis – INS-1E rat cells, luminescence, orthogonal assay for beta-cell apoptosis protection project, dose response (AID 463206)

Structure (SMILES)	AC50
Cc1cc(C)c(C)c(S(=O)(=O)N2CCN(c3ncnc4ccccc34)CC2)c1C	> 26 µM (inactive)
Cc1cc(N2CCOCC2)nc(N)n1	> 26 µM (inactive)
CCN(c1ccccc1)S(=O)(=O)c1ccc(C(=O)NC2CCN(Cc3ccccc3)CC2)cc1	> 26 µM (inactive)
O=C1C=C(N2CCCCC2)c2ccccc2C1=O	> 26 µM (inactive)
c1ccc(-c2nnc(-c3ccccn3)nc2NC2CCCCC2)cc1	> 26 µM (inactive)
Cc1ccccc1OC1C(=O)N(Cc2ccc3c(c2)OCO3)C1c1sccc1C (configuration not stated)	> 26 µM (inactive)
CC(=O)Nc1ccc(Nc2c3ccccc3nc3ccccc23)cc1	8.76 µM
O=C(CNC(=O)c1ccccc1O)N/N=C/c1cc(Br)ccc1OC(=O)/C=C/c1ccco1	> 26 µM (inactive)
CCC(=O)NC(c1ccc(C)cc1)c1cc(Cl)c2cccnc2c1O (configuration not stated)	> 26 µM (inactive)
Cc1ccc(C)c(-c2csc(NC(=O)C3=COCCO3)n2)c1	> 26 µM (inactive)
Cc1ccc(NC(=O)/C=C/c2ccc([N+](=O)[O-])s2)c(C)c1	1.17 µM
COc1ccc(C(=O)N/N=C(\c2ccccc2)c2ccccn2)cc1	> 26 µM (inactive)
CC(NC(=O)c1cc(COc2ccc3ncccc3c2)on1)c1ccc(F)cc1 (configuration not stated)	> 26 µM (inactive)
CCN1CCN(c2ccc(S(=O)(=O)N3CCCCC3)cc2NC(=O)c2ccc([N+](=O)[O-])o2)CC1	> 26 µM (inactive)
[O-][N+]1=c2ccc(Nc3ccccc3)cc2=NC12CCCCC2	> 26 µM (inactive)
CCCCCCC[n+]1ccc(-c2cc[n+](CCCCCCC)cc2)cc1	> 26 µM (inactive)
CCc1ccc(CN(C)C(=O)c2cc(COc3cccc4cnccc34)on2)cc1	> 26 µM (inactive)
CCOc1ccc(S(=O)(=O)N2CCCCC2)cc1NC(=O)CN1CCCC1c1cccs1 (configuration not stated)	> 26 µM (inactive)
O=C1C(Cl)=C(Nc2ccc3cn[nH]c3c2)C(=O)c2ccccc21	> 26 µM (inactive)
Cc1ccccc1OCCCCn1cnc2ccccc21	> 12 µM (inactive)
Clc1cc2cccnc2c2ncccc12	> 26 µM (inactive)
Cc1ccc(NC(=O)c2c(-c3c(F)cccc3Cl)noc2C)cc1F	> 12 µM (inactive)
CCOc1ccc(/C=N/NC(=O)c2[nH]ncc2Br)c(O)c1	> 26 µM (inactive)

Structure (SMILES)	AC50
C=CCn1c(SCC(=O)c2[nH]c(C)c(C(=O)OCC)c2C)nc2scc(-c3ccc(OC)c(OC)c3)c2c1=O	> 12 µM (inactive)
c1ccc(-c2nnc3sc(-c4csc5c4CCCC5)nn23)cc1	> 26 µM (inactive)
CCOc1cc(CNCCc2ccc(S(N)(=O)=O)cc2)ccc1OCc1ccc(Cl)cc1	> 26 µM (inactive)
C[C@H](CO)N1C[C@H](C)[C@@H](CN(C)C(=O)NC2CCCCC2)Oc2c(NC(=O)Nc3ccc(C(F)(F)F)cc3)cccc2C1=O	> 26 µM (inactive)
CCN(CC)c1ccc(/C=N/NC(=O)CNC(=O)C2COc3ccccc3O2)c(O)c1 (configuration not stated)	> 26 µM (inactive)
Cc1occc1C(=O)N1CCCC(N2CCN(c3cccc(C(F)(F)F)c3)CC2)C1 (configuration not stated)	> 26 µM (inactive)
Cc1ccc2c(c1)S/C(=C/c1ccc[n+](CCO)c1)N2C	> 26 µM (inactive)
CCCCSc1nc2sc3c(c2c(=O)n1-c1ccc(C)cc1)CCN(C)C3	> 26 µM (inactive)
CCCC(=O)NC(c1ccc(N(C)C)cc1)c1ccc2cccnc2c1O (configuration not stated)	> 26 µM (inactive)
CCCCCn1c(=O)c(C(=O)NC(C)c2ccccc2)c(O)c2ccccc21 (configuration not stated)	> 26 µM (inactive)
Clc1ccc(SCc2cc(N3CCOCC3)nc(-c3ccccn3)n2)cc1	> 26 µM (inactive)
CN1CCN(c2ccc([N+](=O)[O-])c3no[n+]([O-])c23)CC1	> 26 µM (inactive)
Cc1cc(OCc2nc(-c3ccc(NC(=O)c4cccnc4)cc3)no2)ccc1Cl	> 26 µM (inactive)
Cc1cccc(NC2=C(NC(=O)c3ccccc3)C(=O)c3ccccc3C2=O)c1	> 26 µM (inactive)
CCCNC(=O)c1ccc2c(=O)c(O)c(-c3ccc(Cl)c([N+](=O)[O-])c3)[nH]c2c1	3.22 µM
CCCCNc1c(-c2ccc(SC3CCCCC3)cc2)nc2ccccn12	> 26 µM (inactive)
O=[N+]([O-])c1ccc(/C=N/Nc2ccnc3cc(Cl)ccc23)o1	19.8 µM
Cc1cc(C(C)(C)CC(C)(C)C)ccc1OCCOCC[N+](C)(C)Cc1ccccc1	> 26 µM (inactive)
CCO[C@H]1OC(C(=O)N2CCN(Cc3ccc4c(c3)OCO4)CC2)=C[C@@H](c2csc3ccccc23)[C@@H]1CCCO	> 26 µM (inactive)
Fc1ccc(C[n+]2c(-c3ccccc3)cc(-c3ccccc3)cc2-c2ccccc2)cc1	> 26 µM (inactive)
Cc1ccc(C(C)C)c(OCc2nn(CC(=O)c3ccc(OC(F)F)cc3)c3[n+]2CCCCC3)c1	> 26 µM (inactive)
COc1ccc(CNC[C@@H](CCCCN(C)Cc2ccc(OC)cc2)N2C[C@H](c3ccccc3)N(CCc3ccc(Cl)c(Cl)c3)C(=O)C2=O)cc1	> 26 µM (inactive)
COC(=O)c1nc(-c2ccc3c(n2)C(=O)C(N)=C(OC)C3=O)c(N)c(-c2ccc(OC)c(OC)c2O)c1C	> 26 µM (inactive)

Structure (SMILES)	AC50
CN1/C(=C\C=N\NC(=O)c2ccc(O)cc2)C(C)(C)c2ccccc21	> 26 µM (inactive)
Cn1nc(CC(=O)Nc2ccc3c(c2)OCCO3)c2ccccc2c1=O	> 26 µM (inactive)
O=C(Nc1cccnc1)C1(F)C(F)(F)C(F)(F)C(F)(F)C(F)(F)C1(F)F	> 26 µM (inactive)
C=C(C)C(=O)OCC(O)COc1ccc(C(C)(C)c2ccc(OCC(O)COC(=O)C(=C)C)cc2)cc1 (configuration not stated)	> 26 µM (inactive)
CC(=O)c1c(C)[nH]c(C(=O)CN2CCN(S(=O)(=O)c3ccccc3)CC2)c1C	> 26 µM (inactive)
Cc1ccc2nc(N(CCCN(C)C)C(=O)c3ccc(S(=O)(=O)N4CCc5ccccc5C4)cc3)sc2c1	> 26 µM (inactive)
OC(COC(c1ccc(F)cc1)c1ccc(F)cc1)CN1CCc2ccccc2C1 (configuration not stated)	> 26 µM (inactive)
CC(C(c1cccs1)c1c(N)n(C)c(=O)n(C)c1=O)[N+](=O)[O-] (configuration not stated)	> 26 µM (inactive)
Cc1cc(-c2ccccc2)cc(-c2ccccc2)[n+]1CCc1ccccc1	> 26 µM (inactive)
Cc1[nH]c2ccccc2c1CN1CCC(Cc2ccccc2)CC1	> 26 µM (inactive)
COc1ccc2c(C(=O)NCc3ccc4c(c3)OCO4)c(-c3ccc(S(C)(=O)=O)cc3)sc2c1	> 26 µM (inactive)
CC(=O)Oc1c(Cl)cc(N(C(C)=O)S(=O)(=O)c2ccccc2)c2ccccc12	> 26 µM (inactive)
O=[N+]([O-])/C=C/c1ccc2c(ccn2Cc2ccccc2)c1	> 26 µM (inactive)
Cc1cc(C)c2nc(NNC(=O)c3ccc(S(=O)(=O)N4CCCC(C)C4)cc3)sc2c1 (configuration not stated)	> 26 µM (inactive)
COc1cc(/C=C/C(=O)c2ccc([N+](=O)[O-])o2)ccc1O	> 26 µM (inactive)
CCOC(=O)c1c(CSc2nc(C)cc(C)c2C#N)n(C)c2cc(Br)c(OC(C)=O)cc12	> 26 µM (inactive)
C/C(=N\NC(=O)c1ccc(C)cc1)c1c(C)[nH]n(-c2ccccc2)c1=O	> 26 µM (inactive)
Cc1ccc(NC2=C/C(=N/S(=O)(=O)c3cccs3)c3ccccc3C2=O)cc1C	> 26 µM (inactive)
COc1cc(SC)ccc1C(=O)Nc1nc2ccccc2[nH]1	> 26 µM (inactive)
COc1ccccc1/C=C1\SC(=O)N(CCC(=O)NCCCn2ccnc2)C1=O	> 26 µM (inactive)
C=CCC1(CC=C)CCCN1C(=O)c1cc(COc2ccc(C)nc2)on1	> 26 µM (inactive)
Cn1c(=O)[nH]c(=O)c2c1nc(N1CCN(C(c3ccccc3)c3ccccc3)CC1)n2CCO	> 26 µM (inactive)
CCOC(=O)c1nc(NNC(=O)c2ccc([N+](=O)[O-])cc2)sc1C	> 26 µM (inactive)

Structure (SMILES)	AC50
Cc1ccc(-c2csc(N3CCC(NS(=O)(=O)c4ccc5c(c4)OCCO5)CC3)n2)cc1	> 26 µM (inactive)
Cc1ccc(-c2cn(-c3ccccc3)c3[n+]2CCCS3)cc1	> 26 µM (inactive)
C=C1C(=O)O[C@H]2C[C@@H](C)[C@@H]3C=CC(=O)[C@@]3(C)C[C@H]12	2.83 µM
Cc1ccc(Nc2cc(C)nc(NCc3ccccc3)n2)cc1	> 12 µM (inactive)
CC(=O)NC(c1cccs1)c1cc([N+](=O)[O-])c2cccnc2c1O (configuration not stated)	> 26 µM (inactive)
COCCNC(=O)CSC1=N/C(=C/c2ccc(Cl)c(Cl)c2)C(=O)N1c1ccccc1F	> 26 µM (inactive)
[O-][n+]1onc2c1CCc1c-2nn(-c2ccccc2Cl)[n+]1[O-]	15.9 µM
CCc1ccc2[nH]c3nc(N/N=C/c4ccc(O)cc4O)nnc3c2c1	> 12 µM (inactive)
CCCCCCCCCCOC(=O)Cn1c(COc2ccccc2)[n+](C)c2ccccc21	> 26 µM (inactive)
COC1=C(Nc2ccccc2)C(=O)c2ccccc2C1=O	> 26 µM (inactive)
CC(=O)Nc1ccccc1OCC(=O)c1cc(C)n(Cc2cccs2)c1C	> 26 µM (inactive)
C/C(=N\Nc1ccc2nncn2n1)c1ccccn1	> 26 µM (inactive)
COc1ccc(C(=O)c2c(C(F)(F)F)oc3c2C(=O)c2ccccc2C3=O)cc1	> 26 µM (inactive)
CCCOc1nc2c(c(=O)n(C)c(=O)n2C)n1Cc1cccc2ccccc12	> 26 µM (inactive)
Cc1ccc2c(c1)[nH]c1c(N3CCN(Cc4ccccc4)CC3)ncnc12	> 26 µM (inactive)
CC1CCC(C(C)C)C(OC(=O)Cn2c(-c3ccc(Cl)cc3)[n+](C)c3ccccc32)C1 (configuration not stated)	> 26 µM (inactive)
FC(F)Sc1ccc(N=C2NN=C(c3ccc4c(c3)OCCO4)CS2)cc1	> 26 µM (inactive)
CCc1ccc(S(=O)(=O)/N=C2\C=C(Nc3ccc(C(=O)O)cc3)C(=O)c3ccccc32)cc1	> 26 µM (inactive)
Cc1ccc(OCCN2CCN(c3ncnc4sc(C)c(C)c34)CC2)cc1	> 26 µM (inactive)
Cc1cc2nc(NCCCO)n(CC(=O)c3cc(C(C)(C)C)c(O)c(C(C)(C)C)c3)c2cc1C	> 26 µM (inactive)
Cc1cc(C)c(OCC(O)CNC(C)(C)C)c(C)c1 (configuration not stated)	> 26 µM (inactive)
Cc1c(C)c2cccnc2c2ncccc12	> 26 µM (inactive)
O=C(CNc1ccc(F)cc1)N/N=C/c1c(O)ccc2ccccc12	> 26 µM (inactive)

From PubChem BioAssay AID463206 (Broad Institute, 2010)
